In patent US20100233158A1, “INDUCTION OF IMMUNE TOLERANCE” (Genzyme Corporation, priority 2002, published 2010):

System: cardiac allograft rejection
Test: Heart transplant rejection mouse model (C57/BL6 heart into Balb/c recipient, total MHC mismatch)
Format: in vivo, mice
Details: Compound 1 alone, 75 mg/kg/day for fourteen days following surgery; untreated controls rejected after ten days; p<0.001
Protocol: The ability of a combination therapy of rapamycin and Compound 1 to inhibit transplant rejection in a mouse model was tested. […] Following surgery, the mice were divided into the following treatment groups: • Group I is a control group that was untreated. • Group II was treated with Compound 1 at a dose of 75 mg/kg/day subcutaneously for fourteen days following surgery. • Group III was treated with rapamycin at a dose of 0.3 mg/kg/day intraperitoneally for three days following surgery. • Group IV was treated with Compound 1 at a dose of 75 mg/kg/day intraperitoneally for fourteen days following surgery and with rapamycin at a dose of 0.3 mg/kg/day intraperitoneally for three days following surgery.

## N#Cc1cccc(C(C(=O)NCC(c2ccccc2)c2ccccc2)N(CCc2c[nH]cn2)C(=O)c2ccccc2C(=O)c2ccccc2)c1 (stereo not shown) [Compound 1]
  delay in the onset of rejection: two to three
